Laboratory results reported in the NIST ThermoML archive (doi:10.1016/j.jct.2009.02.008).
“And” between values parts separate entries of the source, which are not always exact repeats. Identical values can stand only once. ± gives the expanded uncertainty stated by the source.

Key:
[1] = Molar enthalpy of transition or fusion; conditions: Crystal; DSC
[2] = for vapor or sublimation pressure: Torsion effusion method

O=C(O)c1ccc([N+](=O)[O-])cc1[N+](=O)[O-] [2,4-dinitrobenzoic acid]
Conditions	Molar enthalpy of transition or fusion [kcal/mol]
[1]	7.31 ± 0.454

[2]
Conditions	Normal melting temperature [°C]	vapor or sublimation pressure
363.5 K, Crystal	–	3e-05 ± 6e-06 kPa
370 K, Crystal	–	6e-05 ± 8e-06 kPa
373 K, Crystal	–	9e-05 ± 1.2e-05 kPa
375 K, Crystal	–	0.000105 ± 1.9e-05 kPa
377 K, Crystal	–	0.00015 ± 2.8e-05 kPa
377.5 K, Crystal	–	0.00015 ± 2.8e-05 kPa
379 K, Crystal	–	0.000195 ± 3.2e-05 kPa
381 K, Crystal	–	0.00024 ± 3e-05 kPa
381.5 K, Crystal	–	0.00024 ± 3e-05 kPa
385 K, Crystal	–	0.00033 ± 4.9e-05 kPa
388.5 K, Crystal	–	0.000511 ± 6e-05 kPa and 0.000541 ± 6.2e-05 kPa
389 K, Crystal	–	0.00048 ± 5.8e-05 kPa and 0.000541 ± 6.2e-05 kPa
391 K, Crystal	–	0.000601 ± 9.5e-05 kPa and 0.000631 ± 9.6e-05 kPa and 0.000691 ± 9.7e-05 kPa
393 K, Crystal	–	0.000781 ± 0.00013 kPa
393.5 K, Crystal	–	0.000901 ± 0.00013 kPa
394 K, Crystal	–	0.000871 ± 0.00013 kPa
396.5 K, Crystal	–	0.001141 ± 0.00013 kPa
397 K, Crystal	–	0.001141 ± 0.00013 kPa
399 K, Crystal	–	0.001351 ± 0.00023 kPa and 0.001502 ± 0.00023 kPa
399.5 K, Crystal	–	0.001622 ± 0.00023 kPa
400 K, Crystal	–	0.001622 ± 0.00023 kPa
401.5 K, Crystal	–	0.001952 ± 0.00028 kPa
402 K, Crystal	–	0.001862 ± 0.00017 kPa
402.5 K, Crystal	–	0.001922 ± 0.00017 kPa
494.3 K, Liquid	–	0.85 ± 0.048 kPa
494.4 K, Liquid	–	0.85 ± 0.052 kPa
494.5 K, Liquid	–	0.851 ± 0.05 kPa
494.7 K, Liquid	–	0.85 ± 0.059 kPa
495.6 K, Liquid	–	0.874 ± 0.059 kPa
495.7 K, Liquid	–	0.883 ± 0.059 kPa
495.8 K, Liquid	–	0.879 ± 0.06 kPa
495.9 K, Liquid	–	0.884 ± 0.06 kPa
500.6 K, Liquid	–	1.05 ± 0.081 kPa and 1.065 ± 0.081 kPa
500.8 K, Liquid	–	1.051 ± 0.081 kPa and 1.058 ± 0.081 kPa
501.1 K, Liquid	–	1.047 ± 0.081 kPa
501.2 K, Liquid	–	1.016 ± 0.15 kPa and 1.046 ± 0.081 kPa and 1.048 ± 0.081 kPa
501.5 K, Liquid	–	1.06 ± 0.081 kPa
502.4 K, Liquid	–	1.13 ± 0.071 kPa
503.2 K, Liquid	–	1.259 ± 0.11 kPa
504.4 K, Liquid	–	1.202 ± 0.08 kPa
505.3 K, Liquid	–	1.309 ± 0.068 kPa
506.2 K, Liquid	–	1.299 ± 0.11 kPa
507.1 K, Liquid	–	1.451 ± 0.09 kPa
507.2 K, Liquid	–	1.464 ± 0.086 kPa
507.4 K, Liquid	–	1.458 ± 0.12 kPa
507.5 K, Liquid	–	1.475 ± 0.12 kPa
508.1 K, Liquid	–	1.511 ± 0.12 kPa
508.2 K, Liquid	–	1.484 ± 0.12 kPa and 1.513 ± 0.12 kPa
508.3 K, Liquid	–	1.516 ± 0.12 kPa
508.5 K, Liquid	–	1.513 ± 0.15 kPa
510.3 K, Liquid	–	1.607 ± 0.12 kPa
511.4 K, Liquid	–	1.647 ± 0.099 kPa
511.5 K, Liquid	–	1.909 ± 0.13 kPa
512.3 K, Liquid	–	1.785 ± 0.12 kPa
512.8 K, Liquid	–	1.798 ± 0.13 kPa and 1.814 ± 0.13 kPa and 1.816 ± 0.13 kPa
512.9 K, Liquid	–	1.849 ± 0.13 kPa [middle of 4 runs]
513 K, Liquid	–	1.814 ± 0.13 kPa
513.2 K, Liquid	–	1.704 ± 0.14 kPa
514.4 K, Liquid	–	1.9 ± 0.11 kPa
515.2 K, Liquid	–	1.995 ± 0.18 kPa
516.4 K, Liquid	–	1.952 ± 0.13 kPa
517.2 K, Liquid	–	2.293 ± 0.16 kPa and 2.389 ± 0.16 kPa and 2.212 ± 0.16 kPa
517.3 K, Liquid	–	2.207 ± 0.12 kPa and 2.212 ± 0.16 kPa
518.4 K, Liquid	–	2.196 ± 0.2 kPa
519.3 K, Liquid	–	2.153 ± 0.14 kPa
520.2 K, Liquid	–	2.466 ± 0.15 kPa
521.4 K, Liquid	–	2.522 ± 0.23 kPa
522.3 K, Liquid	–	2.494 ± 0.2 kPa
523 K, Liquid	–	2.741 ± 0.19 kPa
523.1 K, Liquid	–	2.703 ± 0.19 kPa and 2.754 ± 0.19 kPa
523.2 K, Liquid	–	2.768 ± 0.19 kPa
523.3 K, Liquid	–	2.731 ± 0.19 kPa
524.3 K, Liquid	–	2.997 ± 0.23 kPa
526.3 K, Liquid	–	3.049 ± 0.21 kPa
527.2 K, Liquid	–	3.107 ± 0.17 kPa
528.4 K, Liquid	–	3.467 ± 0.3 kPa
528.9 K, Liquid	–	3.528 ± 0.23 kPa and 3.623 ± 0.24 kPa and 3.453 ± 0.23 kPa
529 K, Liquid	–	3.447 ± 0.23 kPa
529.2 K, Liquid	–	3.297 ± 0.28 kPa
530.4 K, Liquid	–	3.895 ± 0.22 kPa
531.2 K, Liquid	–	3.694 ± 0.22 kPa
531.3 K, Liquid	–	3.86 ± 0.32 kPa and 3.894 ± 0.22 kPa
531.4 K, Liquid	–	3.865 ± 0.22 kPa
531.5 K, Liquid	–	3.847 ± 0.22 kPa
532.2 K, Liquid	–	3.786 ± 0.23 kPa
533.4 K, Liquid	–	4.205 ± 0.3 kPa
534.2 K, Liquid	–	4.308 ± 0.33 kPa and 3.936 ± 0.24 kPa and 4.141 ± 0.25 kPa
534.4 K, Liquid	–	4.173 ± 0.25 kPa and 4.085 ± 0.24 kPa
535.4 K, Liquid	–	4.593 ± 0.28 kPa
536.3 K, Liquid	–	4.615 ± 0.29 kPa
537.3 K, Liquid	–	4.715 ± 0.27 kPa and 4.48 ± 0.34 kPa
537.4 K, Liquid	–	4.808 ± 0.36 kPa and 4.815 ± 0.36 kPa
537.5 K, Liquid	–	4.648 ± 0.35 kPa
538.2 K, Liquid	–	4.909 ± 0.28 kPa
539.2 K, Liquid	–	5.258 ± 0.51 kPa and 5.485 ± 0.65 kPa and 5.433 ± 0.62 kPa
539.3 K, Liquid	–	5.693 ± 0.75 kPa
539.4 K, Liquid	–	4.999 ± 0.37 kPa
540.3 K, Liquid	–	5.053 ± 0.33 kPa
541.2 K, Liquid	–	5.592 ± 0.37 kPa
543.3 K, Liquid	–	5.789 ± 0.31 kPa
544.2 K, Liquid	–	5.62 ± 0.28 kPa
Crystal, DTA	182.7 ± 1.3	–
